In PMC3640414 (Journal of Medicinal Chemistry, 2013):
Read-outs that look alike come from different tables or passages of the source.

Tests used:
[1] = test system: U2OS (osteosarcoma) cells; assay: WST-1 viability assay, U2OS cells; type: cell-based; details: Homo sapiens, read-out: IC50, U2OS (osteosarcoma)
[2] = test system: HeLa (cervical adenocarcinoma) cells; assay: WST-1 viability assay, HeLa cells; type: cell-based; details: Homo sapiens, read-out: IC50, HeLa (cervical adenocarcinoma)
[3] = Stability of 8 in buffer (chiral HPLC); type: physicochemical; details: 2 h in 50 mM HEPES, 0.01% TWEEN, 0.1% BSA
Method: vacuum manifold with the inert gas passing through a bed of activated 4 Å molecular sieves and self-indicating silica gel. Cs2CO3, K2CO3 and activated MnO2 were dried in an oven prior to use.
PhMgBr (in THF) was titrated against salicaldehyde phenylhydrazone prior to use, according to the procedure of Love and Jones.9
Reactions with microwave irradiation were carried out in a Biotage Initiator microwave […]
In vacuo refers to the use of a rotary evaporator attached to a diaphragm pump. Brine refers to a saturated aqueous solution of sodium chloride. Petroleum ether refers to the fraction boiling between 30–40 °C unless otherwise stated.
Stability of 8 in buffer: 0.5 mg of (+)-8 in 10 μL DMSO was suspended in buffer (50 mM HEPES, 0.01% TWEEN, 0.1% BSA). […]
Cytotoxcity of 8 in HeLa and U2OS cells: HeLa cells were grown and maintained in DMEM supplemented with L-glutamine and 10% fetal calf serum; U2OS cells were grown and maintained in McCoy’s medium supplemented with 10% fetal calf serum. […] After 24 h or 72 h, 10 μL of WST-1 (Roche Diagnostics) was added to the culture medium and cell viability was determined by colorimetric WST-1 conversion assay. Formazan dye formation was measured at 450 nm using a Molecular devices Spectramax Plus384 microplate reader. Relative WST-1 conversion in treated cells compared with untreated control cells was calculated after […]

BRD4(1) = target: T1, BRD4(1) (Homo sapiens, UniProt O60885); assay: AlphaScreen peptide displacement assay (ALPHA), BRD4(1); type: binding
T1 construct: amplify the N-terminal bromodomain region of the protein; made in house

[4] = test system: A549 (lung adenocarcinoma) cells; assay: MTS cytotoxicity assay, A549 cells; type: cell-based; details: 100 μM, 72 h
Text: (§1) We also investigated the effects of 8 and 9 in two lung adenocarcinoma cell lines, A549 and H1975. […] H1975 appeared to be somewhat more sensitive to these compounds, a finding confirmed by a clonogenic survival assay (Supporting Information Figure S5).
(§2) Viability of MV4;11, H549, and H1975 cells was monitored by MTS-based CellTiter 96 AQueous nonradioactive cell proliferation assay (Promega, Madison, WI). Viability of U2OS and HeLa cells was monitored by WST-based cell proliferation kit (Roche, Mannheim, Germany). Further details are provided in Supporting Information

BAZ2B = target: T2, BAZ2B (Homo sapiens, UniProt Q9UIF8); assay: ALPHA selectivity panel, BAZ2B; type: binding; details: 25 μM compound, ALPHA assay
T2 construct: the bromodomains from ATAD2, BAZ1A, BAZ2A, BAZ2B, BRD9, BRPF3, CECR2, GCN5L2, PHIP(1), PB1(1), and TIF1α; made in house
T2 sequence (Q9UIF8 2060-2164 limits assumed): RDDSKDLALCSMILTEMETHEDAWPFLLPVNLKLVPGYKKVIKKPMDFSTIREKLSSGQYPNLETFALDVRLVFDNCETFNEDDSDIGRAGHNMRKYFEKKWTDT
Method: (§3) The ALPHA assay was also used to determine the selectivity of 8, 9, and 17, 21–23 for BRD4(1) over the bromodomain of CREBBP (Table 2). […] The selectivity of 8 was further evaluated across a phylogenetically diverse range of bromodomains (Figure 5).
(§4) Bromodomain AlphaScreen assays were carried out as previously described.[24],[30] All experiments were carried out in duplicate on the same plate.

PB1(1) = target: T3, PB1(1) (Homo sapiens, UniProt Q86U86); assay: ALPHA selectivity panel, PB1(1); type: binding; details: 25 μM compound, ALPHA assay
T3 construct: the bromodomains from ATAD2, BAZ1A, BAZ2A, BAZ2B, BRD9, BRPF3, CECR2, GCN5L2, PHIP(1), PB1(1), and TIF1α; made in house
Method: as §3, §4

CECR2 = target: T4, CECR2 (Homo sapiens, UniProt Q9BXF3); assay: ALPHA selectivity panel, CECR2; type: binding; details: 25 μM compound, ALPHA assay
T4 construct: the bromodomains from ATAD2, BAZ1A, BAZ2A, BAZ2B, BRD9, BRPF3, CECR2, GCN5L2, PHIP(1), PB1(1), and TIF1α; made in house
Method: as §3, §4

BAZ1A = target: T5, BAZ1A (Homo sapiens, UniProt Q9NRL2); assay: ALPHA selectivity panel, BAZ1A; type: binding; details: 25 μM compound, ALPHA assay
T5 construct: the bromodomains from ATAD2, BAZ1A, BAZ2A, BAZ2B, BRD9, BRPF3, CECR2, GCN5L2, PHIP(1), PB1(1), and TIF1α; made in house
T5 sequence (Q9NRL2 1430-1533 limits assumed): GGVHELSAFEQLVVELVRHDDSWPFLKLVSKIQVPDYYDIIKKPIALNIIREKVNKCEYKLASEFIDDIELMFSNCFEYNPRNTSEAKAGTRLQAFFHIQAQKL
Method: as §3, §4

BAZ2A = target: T6, BAZ2A (Homo sapiens, UniProt Q9UIF9); assay: ALPHA selectivity panel, BAZ2A; type: binding; details: 25 μM compound, ALPHA assay
T6 construct: the bromodomains from ATAD2, BAZ1A, BAZ2A, BAZ2B, BRD9, BRPF3, CECR2, GCN5L2, PHIP(1), PB1(1), and TIF1α; made in house
T6 sequence (Q9UIF9 1793-1897 limits assumed): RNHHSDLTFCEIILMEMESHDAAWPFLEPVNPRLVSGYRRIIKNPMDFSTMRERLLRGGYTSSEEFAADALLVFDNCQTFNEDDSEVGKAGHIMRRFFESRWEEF
Method: as §3, §4

TIF1α = target: T7, TIF1α (Homo sapiens, UniProt O15164); assay: ALPHA selectivity panel, TIF1α; type: binding; details: 25 μM compound, ALPHA assay
T7 construct: the bromodomains from ATAD2, BAZ1A, BAZ2A, BAZ2B, BRD9, BRPF3, CECR2, GCN5L2, PHIP(1), PB1(1), and TIF1α; made in house
T7 sequence (O15164 899-1004 limits assumed): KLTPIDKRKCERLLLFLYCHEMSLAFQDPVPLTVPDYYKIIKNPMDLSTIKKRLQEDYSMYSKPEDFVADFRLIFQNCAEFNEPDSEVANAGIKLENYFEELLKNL
Method: as §3, §4

ATAD2 = target: T8, ATAD2 (Homo sapiens, UniProt Q6PL18); assay: ALPHA selectivity panel, ATAD2; type: binding; details: 25 μM compound, ALPHA assay
T8 construct: the bromodomains from ATAD2, BAZ1A, BAZ2A, BAZ2B, BRD9, BRPF3, CECR2, GCN5L2, PHIP(1), PB1(1), and TIF1α; made in house
T8 sequence (Q6PL18 980-1092 limits assumed): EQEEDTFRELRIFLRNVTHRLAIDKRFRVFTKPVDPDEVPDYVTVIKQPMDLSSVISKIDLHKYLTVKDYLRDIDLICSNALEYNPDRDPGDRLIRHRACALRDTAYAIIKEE
Method: as §3, §4

[5] = test system: H1975 (lung adenocarcinoma) cells; assay: MTS cytotoxicity assay, H1975 cells; type: cell-based; details: 100 μM, 72 h
Text: as §1, §2

GCN5L2 = target: T9, GCN5L2 (Homo sapiens, UniProt Q92830); assay: ALPHA selectivity panel, GCN5L2; type: binding; details: 25 μM compound, ALPHA assay
T9 construct: the bromodomains from ATAD2, BAZ1A, BAZ2A, BAZ2B, BRD9, BRPF3, CECR2, GCN5L2, PHIP(1), PB1(1), and TIF1α; made in house
T9 sequence (Q92830 728-832 limits assumed): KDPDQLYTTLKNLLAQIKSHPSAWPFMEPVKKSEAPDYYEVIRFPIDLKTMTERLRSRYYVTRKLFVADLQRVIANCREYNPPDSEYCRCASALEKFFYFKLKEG
Method: as §3, §4

BRPF3 = target: T10, BRPF3 (Homo sapiens, UniProt Q9ULD4); assay: ALPHA selectivity panel, BRPF3; type: binding; details: 25 μM compound, ALPHA assay
T10 construct: the bromodomains from ATAD2, BAZ1A, BAZ2A, BAZ2B, BRD9, BRPF3, CECR2, GCN5L2, PHIP(1), PB1(1), and TIF1α; made in house
T10 sequence (Q9ULD4 589-693 limits assumed): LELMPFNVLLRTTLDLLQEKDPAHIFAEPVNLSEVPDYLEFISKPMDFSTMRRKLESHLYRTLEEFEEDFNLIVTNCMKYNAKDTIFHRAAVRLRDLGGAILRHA
Method: as §3, §4

CREBBP bromodomain = target: T11, CREBBP bromodomain (Homo sapiens, UniProt Q92793); assay: AlphaScreen peptide displacement assay (ALPHA), CREBBP; type: binding; details: 25 μM compound
T11 construct: made in house

BRD9 = target: T12, BRD9 (Homo sapiens, UniProt Q9H8M2); assay: ALPHA selectivity panel, BRD9; type: binding; details: 25 μM compound, ALPHA assay
T12 construct: the bromodomains from ATAD2, BAZ1A, BAZ2A, BAZ2B, BRD9, BRPF3, CECR2, GCN5L2, PHIP(1), PB1(1), and TIF1α; made in house
T12 sequence (Q9H8M2 136-240 limits assumed): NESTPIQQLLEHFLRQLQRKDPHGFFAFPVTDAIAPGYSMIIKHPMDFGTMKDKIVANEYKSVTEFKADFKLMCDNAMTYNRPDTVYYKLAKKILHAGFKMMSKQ
Method: as §3, §4

PHIP(1) = target: T13, PHIP(1) (Homo sapiens, UniProt Q8WWQ0); assay: ALPHA selectivity panel, PHIP(1); type: binding; details: 25 μM compound, ALPHA assay
T13 construct: the bromodomains from ATAD2, BAZ1A, BAZ2A, BAZ2B, BRD9, BRPF3, CECR2, GCN5L2, PHIP(1), PB1(1), and TIF1α; made in house
Method: as §3, §4

[6] = viability after 72 h incubation using MTS

T3 sequence (Q86U86 41-151 limits assumed): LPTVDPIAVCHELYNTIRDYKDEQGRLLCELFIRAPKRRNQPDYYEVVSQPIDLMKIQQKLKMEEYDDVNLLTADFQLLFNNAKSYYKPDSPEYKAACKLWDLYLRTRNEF
T4 sequence (Q9BXF3 434-538 limits assumed): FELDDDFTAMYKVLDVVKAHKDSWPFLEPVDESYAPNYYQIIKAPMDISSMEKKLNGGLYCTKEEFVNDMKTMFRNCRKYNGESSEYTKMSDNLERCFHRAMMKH
T11 sequence (Q92793 1085-1192 limits assumed): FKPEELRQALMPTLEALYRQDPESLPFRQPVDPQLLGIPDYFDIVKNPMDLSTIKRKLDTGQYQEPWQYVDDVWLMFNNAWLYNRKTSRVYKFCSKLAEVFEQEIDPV

Structure (SMILES): Cc1sc2c(c1C)C(c1ccc(Cl)cc1)=N[C@@H](CC(=O)OC(C)(C)C)c1nnc(C)n1-2 [(+)-JQ1, reference compound]
- IC50 ([1]; 72 h): 2.9 µM
- IC50 ([2]; 72 h): 2.1 µM

Structure (SMILES): Cc1noc(C)c1-c1cc(O)cc([C@@H](O)c2ccccc2)c1 [(S)-(+)-8, 3-(3,5-Dimethylisoxazol-4-yl)-5-(hydroxy(phenyl)methyl)phenol]
- enantiomeric excess after incubation in buffer [3]: > 98 % ee
- purity after incubation in buffer [3]: 95%

Structure (SMILES): CCOc1cc(-c2c(C)noc2C)cc(C(C)O)c1 (centres unmarked) [Compound 3]
- selectivity for BRD4(1) over CREBBP bromodomain (BRD4(1); comparison of ALPHA IC50 values): approximately 6 fold
- ligand efficiency (BRD4(1); for BRD4(1)): 0.39
- lipophilic ligand efficiency (BRD4(1); for BRD4(1)): 3.12

Structure (SMILES): Cc1noc(C)c1-c1cc(O)cc(C(O)c2ccccc2)c1 (centres unmarked) [Compound 8, 3-(3,5-Dimethylisoxazol-4-yl)-5-(hydroxy(phenyl)methyl)phenol]
- IC50 [1, 6]: 19 µM
- effect on viability of A549 cells [4]: markedly reduced the viability
- percentage inhibition of BAZ2B bromodomain (BAZ2B): little affinity
- inhibition at 25 µM (BAZ2B; read-out: percentage inhibition of BAZ2B bromodomain): < 25%
- percentage inhibition of PB1(1) bromodomain (PB1(1)): little affinity
- inhibition at 25 µM (PB1(1); read-out: percentage inhibition of PB1(1) bromodomain): < 25%
- IC50 [2, 6]: 24 µM
- inhibition at 25 µM (BRD4(1); 25 μM compound, ALPHA assay, read-out: inhibition of the BRD4(1) bromodomain): ~100%
- percentage inhibition of CECR2 bromodomain (CECR2): little affinity
- inhibition at 25 µM (CECR2; read-out: percentage inhibition of CECR2 bromodomain): < 25%
- percentage inhibition of BAZ1A bromodomain (BAZ1A): little affinity
- inhibition at 25 µM (BAZ1A; read-out: percentage inhibition of BAZ1A bromodomain): < 25%
- percentage inhibition of BAZ2A bromodomain (BAZ2A): little affinity
- inhibition at 25 µM (BAZ2A; read-out: percentage inhibition of BAZ2A bromodomain): < 25%
- percentage inhibition of TIF1α bromodomain (TIF1α): little affinity
- inhibition at 25 µM (TIF1α; read-out: percentage inhibition of TIF1α bromodomain): < 25%
- percentage inhibition of ATAD2 bromodomain (ATAD2): little affinity
- inhibition at 25 µM (ATAD2; read-out: percentage inhibition of ATAD2 bromodomain): < 25%
- effect on viability of H1975 cells [5]: markedly reduced the viability
- percentage inhibition of GCN5L2 bromodomain (GCN5L2): little affinity
- inhibition at 25 µM (GCN5L2; read-out: percentage inhibition of GCN5L2 bromodomain): < 25%
- percentage inhibition of BRPF3 bromodomain (BRPF3): little affinity
- inhibition at 25 µM (BRPF3; read-out: percentage inhibition of BRPF3 bromodomain): < 25%
- inhibition at 25 µM (CREBBP bromodomain): ~100%
- percentage inhibition of BRD9 bromodomain (BRD9): little affinity
- inhibition at 25 µM (BRD9; read-out: percentage inhibition of BRD9 bromodomain): < 25%
- percentage inhibition of PHIP(1) bromodomain (PHIP(1)): little affinity
- inhibition at 25 µM (PHIP(1); read-out: percentage inhibition of PHIP(1) bromodomain): < 25%
